Measurements as given in patent US20210113524A1, “METHODS OF TREATING MYELOPROLIFERATIVE DISORDERS” (The Henry M. Jackson Foundation for the Advancement of …, priority 2018, published 2021).

What was measured:
Gata1^low mice [1] = assay: Flow cytometry of CD115-/CD41+ megakaryocytes in bone marrow of Gata1^low mice; details: 72 mg/kg/day captopril from 10 to 12 months, euthanized at 13 months, untreated Gata1^low 1.45%, wild type 0.5%, p<0.05
Gata1^low mice [2] = assay: Peripheral complete blood counts with differentials in Gata1^low mice; format: in vivo, mouse; details: 72 mg/kg per day captopril in drinking water from 10 to 12 months, euthanized at 13.5 months
Text: HEMATOL. […] Control animals received acidified water (vehicle) without captopril.
Separate mice were used for each point (n=5-6 per group).
Peripheral blood counts were studied in captopril-treated and untreated Gata1^low mice and their wild-type littermates. […] Complete blood cell counts with differentials were obtained.

Gata1^low mice [3] = assay: Flow cytometry of megakaryocytes in spleen of Gata1^low mice; details: captopril treatment, p<0.05
[4] = test system: C57BL/6 mice exposed to 7.9 Gy total body 60Co irradiation; assay: Serum growth factor and cytokine levels (MSD/ELISA) after 7.9 Gy total body irradiation; details: 7.9 Gy TBI
[5] = test system: mice exposed to total body radiation; details: mice exposed to total body radiation (Davis et al. 2010); cited from earlier work
Gata1^low mice [6] = assay: qRT-PCR of CD41, CD61, Col1a, Col3a2 mRNA in spleen-derived cells of Gata1^low mice; details: captopril treated Gata1^low mice
Gata1^low mice [7] = assay: qRT-PCR of CD41, CD61, Col1a, Col3a2 mRNA in femur bone marrow of Gata1^low mice; details: 72 mg/kg/day captopril, vs untreated mice, p<0.05
Gata1^low mice [8] = assay: Spleen histology and spleen weight in Gata1^low mice; format: in vivo, mouse
Method: (§1) All animal handling procedures were performed in compliance with guidelines from the National Research Council for the ethical handling of laboratory animals and were approved by the Uniformed Services University of the Health Sciences Institutional Animal Care and Use Committee. Male and female Gata1^low and wild type CD1 mice were purchased from Jackson Laboratories (Bar Harbor, Me.). Quantitative PCR confirmed low expression of Gata1. The mice were crossed to a CD1 background to establish a line of homozygous mutant mice. Mice were kept in a barrier facility for animals accredited by the Association for Assessment and Accreditation of Laboratory Animal Care International. Mice were housed in groups of four. Animal rooms were maintained at 21±2° C., 50%±10% humidity, and 12-hour light/dark cycle with commercial, freely-available rodent ration (Harlan Teklad Rodent Diet 8604, Frederick, Md., USA).
(§2) HEMATOL. 2010; 38: 270-81. […] 2005; 29: 30-6. Based on previously measured volumes of water consumed per day by the mice, the daily water consumption was determined to be a dose of […] [Davis et al., 2010]. Control animals received acidified water (vehicle) without captopril. Animals were euthanized at 13 months of age.
(§3) Tissues were paraffin blocked and stained using standard methods for hematoxylin and eosin (H&E), Masson's trichrome, and Gomori's reticulin stain by Histoserve (Germantown, Md.). Stained slides were evaluated by a pathologist who was blinded to the identity of the treatment groups and using a published system for scoring myelofibrosis [Kvasnicka, H. M., Problems and pitfalls in grading of bone marrow fibrosis, collagen deposition and osteosclerosis—a consensus-based study, HISTOPATHOLOGY 2016; 68: 905-15]. Bone marrow sections were digitally scanned using the Zeiss Axioscan, and images were produced with Zen Lite software (Carl Zeiss, USA).
Levels of megakaryocytes and extramedullary hematopoiesis were compared in the spleens of wild-type, untreated Gata1^low, and captopril-treated Gata1^low mice. […]

Gata1^low mice [9] = assay: Bone marrow histology and myelofibrosis (reticulin) scoring in Gata1^low mice; format: in vivo, mouse
Method: as §1, §2, §3
To determine the efficacy of captopril in reversing MF, morphologic and phenotypic changes in the Gata1^low mouse model were evaluated. […]

With `C[C@H](CS)C(=O)N1CCC[C@H]1C(=O)O` [captopril] the “number of CD115-/CD41+ megakaryocytes in bone marrow” value (Gata1^low mice [1]) was 0.6 % of total live cells, the platelet count (Gata1^low mice [2]) was “did not ameliorate” and the eosinophils (Gata1^low mice [2]; vs untreated Gata1^low) was “normalized”. The lymphocytes (Gata1^low mice [2]; vs untreated Gata1^low) was “normalized”, the neutrophils (Gata1^low mice [2]; vs untreated Gata1^low) was “normalized” and the “white blood cells (WBC)” value (Gata1^low mice [2]; vs untreated Gata1^low) was “normalized”. The “decrease in the frequency of megakaryocytes as a percentage of total live cells, spleen” value (Gata1^low mice [3]) was roughly 2 fold, the “increase in serum EPO” value ([4]; 4 days post-irradiation, captopril 13 mg/kg/day in drinking water, same with or without captopril) was roughly 10 fold and the “serum EPO level” value ([4]; 7 days post-irradiation, captopril 13 mg/kg/day, radiation-plus-vehicle 8.66±0.9, mean±SEM) was 0.57 ± 0.7 ng/mL. The “serum EPO level” value ([4]; 14 days post-irradiation, captopril 13 mg/kg/day, radiation-plus-vehicle 288±140, mean±SEM) was 140 ± 24 ng/mL, the “serum EPO level” value ([4]; 21 days post-irradiation, captopril vs vehicle irradiated group) was “similarly elevated” and the IL-6 levels post-irradiation ([4]; any time points (3-30 days), captopril 13 mg/kg/day) was “did not significantly suppress”. For the same compound, the “serum EPO level” value ([4]; by 30 days post-irradiation, captopril-treated animals) was “declined sharply”, the “radiation induced G-CSF” value ([4]; days 7 and 14 post-irradiation, captopril 13 mg/kg/day from 48 hours post-irradiation for 14 days, p<0.05 vs vehicle) was “significantly suppressed” and the “radiation-induced SAA1 levels” value ([4]; days 7 and 14 post-irradiation, delayed (48 hours) low-dose captopril 13 mg/kg/day, p<0.05 vs vehicle) was “significantly attenuated”. For the same compound, the “blood cell recovery (red blood cells, reticulocytes, platelets) and recovery of colony forming units (CFU-GM, CFU-M, total)” value [5] was “improving blood cell recovery”, the survival rates [5] was “improved survival rates” and the “Col3a2 expression (qPCR), spleen” value (Gata1^low mice [6]) was “trend toward reduced Col3a2 expression, although this did not reach significance”. For the same compound, the “decrease of CD41 marker (qRT-PCR), spleen” value (Gata1^low mice [6]; p<0.05) was “about 6 fold”, the “decrease of CD61 marker (qRT-PCR), spleen” value (Gata1^low mice [6]; p<0.05) was “about 5 fold” and the “reduction in the level of Col1a expression (qPCR), spleen” value (Gata1^low mice [6]; p<0.05) was roughly 4 fold. For the same compound, the “decrease of CD41 marker (qRT-PCR), bone marrow” value (Gata1^low mice [7]) was “approximately 3 fold”, the “decrease of CD61 marker (qRT-PCR), bone marrow” value (Gata1^low mice [7]) was roughly 2 fold and the “decrease of Col1a expression, bone marrow” value (Gata1^low mice [7]) was “approximately 15 fold”. For the same compound, the “decrease of Col3a2 expression, bone marrow” value (Gata1^low mice [7]) was “approximately 4 fold”, the “decrease in splenic weight” value (Gata1^low mice [8]; captopril for 2 months, vs untreated Gata1^low mice, p<0.05) was roughly 2 fold and the “extramedullary hematopoiesis in spleen (histology)” value (Gata1^low mice [8]; captopril for two months, untreated Gata1^low: significant) was “moderate amounts of extramedullary hematopoiesis”. The “atypical megakaryocytes in spleen (histology)” value (Gata1^low mice [8]; captopril for two months, vs untreated Gata1^low) was “reduced numbers of atypical megakaryocytes”, the “megakaryocytic hyperplasia in bone marrow (histology)” value (Gata1^low mice [9]; captopril for two months (10-12 months of age), evaluated at 13 months, untreated Gata1^low: moderate) was “only mild megakaryocytic hyperplasia” and the “averaged bone marrow reticulin score” value (Gata1^low mice [9]; captopril for two months, score out of 3, untreated Gata1^low 1.8, wild type 0) was 0.5. The “severity of bone marrow fibrosis (histology)” value (Gata1^low mice [9]; captopril in drinking water (79 mg/kg/day) from 10-12 months of age, evaluated at 13 months, vs untreated Gata1^low) was “reduced the severity off bone marrow fibrosis”.
